According to article PMC9090415, “Discovery of small molecule inhibitors of Plasmodium falciparum apicoplast DNA polymerase” (Journal of Enzyme Inhibition and Medicinal Chemistry, 2022):

Target: P. falciparum apicoplast DNA polymerase (Pf-apPOL) (Plasmodium falciparum, UniProt Q8ILY1)
Assay: Fluorescence-based high-throughput DNA polymerase assay (molecular beacon), primary screen and dose-response
Assay type: biochemical
Description: The HT assay employs a molecular beacon, a stem-loop DNA template with a Cy3 dye and the Black Hole Quencher on the 3′ and 5′ ends of the DNA, respectively. Pf-apPOL concentration is based on a calculated absorptivity of ε280 = 56750 M^−1 cm^−1. Reactions were carried out at 25 °C, using Corning 3575 […] (well-volume, 20 µL). Assays testing for compound inhibition composed of reaction buffer (pH 7.9 in 50 mM potassium acetate, 20 mM Tris-acetate and 10 mM magnesium acetate), Pf-apPOL (20 nM), DNA substrate (20 nM), dNTPs (6 µM), and compound (10 µM in DMSO). The DNA and nucleotide substrates (dNTPs) were at concentrations of 20 nM and 6 µM, respectively, in the assay. Pf-apPOL was incubated in the reaction buffer with dNTPs and the compound of interest (10 µM, in the assay) at 25 °C for 10 min. The DNA substrate was then added and the reaction was allowed to proceed for 90 min at 25 °C.
Each assay plate contained 16 negative controls (no Pf-apPOL, DMSO present) and 16 positive controls (Pf-apPOL present, no DMSO). The fluorescence of each well was determined using a BioTek Synergy Neo fluorescence plate reader using excitation and emission wavelengths of 555 and 570 nm, respectively.
In the above, Min is the average of fluorescence emission of the negative controls (substrate only), Max the average fluorescence emission from the positive controls (enzyme + substrate), and Test the emission from the assays in the presence of compounds (enzyme + compound + substrates). […] […] The IC50 of each compound was determined using Equation (2): (2) IC50= Vmax/(1+ (I/IC50)^n)
In the above, n measures cooperativity, with n > 1 indicating synergistic binding of more than a single molecule of the compound.
To identify apPOL inhibitors we utilised our previously developed high-throughput DNA polymerase assay. The HT assay is based on a molecular beacon DNA template that forms a stem-loop with a Cy3 dye and the Black Hole Quencher on the 3′ and 5′ ends of the DNA, respectively. DNA polymerase activity extends an annealed primer through the stem region, displacing the fluorophore from the quencher, thereby increasing its fluorescence (Figure 1(A)). The assay accurately recapitulates the kinetic behaviour of apPOL, as measured through more conventional low-throughput gel-based assays. The Z′ factor for the assay described here was 0.9 across all plates (data not shown).
Figure 1. High-throughput screening. (A) The fluorescent-based DNA polymerase assay used to screen the compound libraries. The DNA template strand is a hairpin loop with a primer annealed to the loop. The 3’ end of the primer is 11 bases away from the 6 bp duplex. Strand displacement activity of the DNA polymerase separates the Cy3 dye from the Black hole quencher leading to an increase in fluorescent signal. (B) The high-throughput assay workflow. The DNA polymerase is incubated with […] compound for 10 min prior to addition of the hairpin substrate. The reaction is quenched at 3 different time points and the fluorescent signal is measured and % inhibition is determined using the provided equation.

P. falciparum apicoplast DNA polymerase (Pf-apPOL), sequence (Q8ILY1 entry or part of it): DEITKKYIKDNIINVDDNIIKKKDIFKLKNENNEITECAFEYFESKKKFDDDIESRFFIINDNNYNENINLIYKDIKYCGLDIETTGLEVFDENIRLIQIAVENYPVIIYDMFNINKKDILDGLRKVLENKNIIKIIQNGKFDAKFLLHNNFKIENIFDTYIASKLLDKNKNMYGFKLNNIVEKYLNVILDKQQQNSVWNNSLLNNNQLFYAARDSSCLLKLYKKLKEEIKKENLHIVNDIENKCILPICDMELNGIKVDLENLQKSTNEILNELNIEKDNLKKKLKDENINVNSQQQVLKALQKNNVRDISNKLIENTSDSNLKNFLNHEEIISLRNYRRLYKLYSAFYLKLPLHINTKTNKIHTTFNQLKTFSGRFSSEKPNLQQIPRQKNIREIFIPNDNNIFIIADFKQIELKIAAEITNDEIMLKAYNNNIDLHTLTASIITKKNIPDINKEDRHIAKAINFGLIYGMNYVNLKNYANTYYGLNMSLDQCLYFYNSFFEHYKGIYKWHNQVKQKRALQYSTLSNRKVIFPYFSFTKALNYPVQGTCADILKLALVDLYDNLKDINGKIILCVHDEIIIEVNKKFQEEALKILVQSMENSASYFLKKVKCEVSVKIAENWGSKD

Oc1ccc(N=Nc2ccccc2)c(O)c1 [Molecule 80, Oc1ccc(c(c1)O)N=Nc1ccccc1]
DNA Pol (186 hits, value of the hit list (primary screen); unit not given; 90 min, 10 µM): 72 | % inhibition Apo pol 10' (DRC-1; 10'; concentration 2.5): 10.9556% | % inhibition Apo pol 10' (DRC-1; 10'; concentration 5): 10.5427% | % inhibition Apo pol 10' (DRC-1; 10'; concentration 10): 21.5612% | % inhibition Apo pol 10' (DRC-1; 10'; concentration 20): 33.6555% | % inhibition Apo pol 10' (DRC-1; 10'; concentration 40): 51.3856% | % inhibition Apo pol 10' (DRC-1; 10'; concentration 80): 71.5271% | % inhibition Apol 90' (DRC-1; 90'; concentration 2.5): -0.1987% | % inhibition Apol 90' (DRC-1; 90'; concentration 5): 0.4517% | % inhibition Apol 90' (DRC-1; 90'; concentration 10): 6.956% | % inhibition Apol 90' (DRC-1; 90'; concentration 20): 15.0719% | % inhibition Apol 90' (DRC-1; 90'; concentration 40): 30.4244% | % inhibition Apol 90' (DRC-1; 90'; concentration 80): 54.1765% | % inhibition apPOL 180' (DRC-1; 180'; concentration 2.5): -4.521% | % inhibition apPOL 180' (DRC-1; 180'; concentration 5): -7.381% | % inhibition apPOL 180' (DRC-1; 180'; concentration 10): -2.239% | % inhibition apPOL 180' (DRC-1; 180'; concentration 20): 3.639% | % inhibition apPOL 180' (DRC-1; 180'; concentration 40): 16.6852% | % inhibition apPOL 180' (DRC-1; 180'; concentration 80): 39.1474% | % inhibition Apo pol 5' (DRC-2, 5', concentration 2.5): 1.77% | % inhibition Apo pol 5' (DRC-2, 5', concentration 5): 5.48% | % inhibition Apo pol 5' (DRC-2, 5', concentration 10): 24% | % inhibition Apo pol 5' (DRC-2, 5', concentration 20): 31% | % inhibition Apo pol 5' (DRC-2, 5', concentration 40): 44% | % inhibition Apo pol 5' (DRC-2, 5', concentration 80): 51% | % inhibition Apol 40' (DRC-2, 40', concentration 2.5): 1.06% | % inhibition Apol 40' (DRC-2, 40', concentration 5): 2.17% | % inhibition Apol 40' (DRC-2, 40', concentration 10): 23% | % inhibition Apol 40' (DRC-2, 40', concentration 20): 29% | % inhibition Apol 40' (DRC-2, 40', concentration 40): 43% | % inhibition Apol 40' (DRC-2, 40', concentration 80): 54% | % inhibition ApPOL 90' (DRC-2, 90', concentration 2.5): -1% | % inhibition ApPOL 90' (DRC-2, 90', concentration 5): -0.664% | % inhibition ApPOL 90' (DRC-2, 90', concentration 10): 21% | % inhibition ApPOL 90' (DRC-2, 90', concentration 20): 24% | % inhibition ApPOL 90' (DRC-2, 90', concentration 40): 38% | % inhibition ApPOL 90' (DRC-2, 90', concentration 80): 52% | % inhibition apPOL 180' (DRC-2, 180', concentration 2.5): -4% | % inhibition apPOL 180' (DRC-2, 180', concentration 5): -4.42% | % inhibition apPOL 180' (DRC-2, 180', concentration 10): 16% | % inhibition apPOL 180' (DRC-2, 180', concentration 20): 15% | % inhibition apPOL 180' (DRC-2, 180', concentration 40): 25% | % inhibition apPOL 180' (DRC-2, 180', concentration 80): 41% | % inhibition Apo pol 5' (DRC-2; 5'; concentration 10): 24% | % inhibition ApPOL 90' (DRC-2; 90'; concentration 20): 24% | DNA Pol (primary screen value, 'DNA Pol' only; 90 min, 10 µM): 72

O=C(c1c[nH]c2ncccc12)N1CCCCCC1 [Molecule 51, O=C(c1c[nH]c2c1cccn2)N1CCCCCC1]
DNA Pol ('DNA Pol'; screening value, unit not given; 90 min, 10 µM): 25 | % inhibition Apo pol 10' (DRC-1; 10'; concentration 2.5): 0.9621% | % inhibition Apo pol 10' (DRC-1; 10'; concentration 5): 3.05% | % inhibition Apo pol 10' (DRC-1; 10'; concentration 10): 7.159% | % inhibition Apo pol 10' (DRC-1; 10'; concentration 20): 44.6815% | % inhibition Apo pol 10' (DRC-1; 10'; concentration 40): 69.4342% | % inhibition Apo pol 10' (DRC-1; 10'; concentration 80): 66.9665% | % inhibition Apol 90' (DRC-1; 90'; concentration 2.5): 1.194% | % inhibition Apol 90' (DRC-1; 90'; concentration 5): 0.544% | % inhibition Apol 90' (DRC-1; 90'; concentration 10): 3.081% | % inhibition Apol 90' (DRC-1; 90'; concentration 20): 31.7125% | % inhibition Apol 90' (DRC-1; 90'; concentration 40): 60.4317% | % inhibition Apol 90' (DRC-1; 90'; concentration 80): 59.6767% | % inhibition apPOL 180' (DRC-1; 180'; concentration 2.5): -0.2836% | % inhibition apPOL 180' (DRC-1; 180'; concentration 5): -4.489% | % inhibition apPOL 180' (DRC-1; 180'; concentration 10): -1.621% | % inhibition apPOL 180' (DRC-1; 180'; concentration 20): 18.2058% | % inhibition apPOL 180' (DRC-1; 180'; concentration 40): 46.8298% | % inhibition apPOL 180' (DRC-1; 180'; concentration 80): 46.9776% | % inhibition Apo pol 5' (DRC-2, 5', concentration 2.5): 0.781% | % inhibition Apo pol 5' (DRC-2, 5', concentration 5): 2.7% | % inhibition Apo pol 5' (DRC-2, 5', concentration 10): 24% | % inhibition Apo pol 5' (DRC-2, 5', concentration 20): 38% | % inhibition Apo pol 5' (DRC-2, 5', concentration 40): 34% | % inhibition Apo pol 5' (DRC-2, 5', concentration 80): 36% | % inhibition Apol 40' (DRC-2, 40', concentration 2.5): 4% | % inhibition Apol 40' (DRC-2, 40', concentration 5): 4.4% | % inhibition Apol 40' (DRC-2, 40', concentration 10): 28% | % inhibition Apol 40' (DRC-2, 40', concentration 20): 47% | % inhibition Apol 40' (DRC-2, 40', concentration 40): 45% | % inhibition Apol 40' (DRC-2, 40', concentration 80): 61% | % inhibition ApPOL 90' (DRC-2, 90', concentration 2.5): 2.81% | % inhibition ApPOL 90' (DRC-2, 90', concentration 5): 3.55% | % inhibition ApPOL 90' (DRC-2, 90', concentration 10): 25% | % inhibition ApPOL 90' (DRC-2, 90', concentration 20): 46% | % inhibition ApPOL 90' (DRC-2, 90', concentration 40): 45% | % inhibition ApPOL 90' (DRC-2, 90', concentration 80): 68% | % inhibition apPOL 180' (DRC-2, 180', concentration 2.5): -1% | % inhibition apPOL 180' (DRC-2, 180', concentration 5): -0.742% | % inhibition apPOL 180' (DRC-2, 180', concentration 10): 17% | % inhibition apPOL 180' (DRC-2, 180', concentration 20): 37% | % inhibition apPOL 180' (DRC-2, 180', concentration 40): 35% | % inhibition apPOL 180' (DRC-2, 180', concentration 80): 72% | % inhibition Apol 40' (conc 40 (unit not given); 40'; DRC-2): 45% | % inhibition ApPOL 90' (conc 40 (unit not given); 90'; DRC-2): 45% | DNA Pol (primary screen hit value, DNA Pol (186 hits); 90 min, 10 µM): 25
